Numbered stars: 1 amine (or outer) side, 2 acyl side, 3 side chain; on linkers, the order of the positions; unused ones are H or OH. Square brackets hold non-standard residues; d marks the D form. Peptide text beside a SMILES is read from it. * marks the point of attachment. DOTA = O=C(O)CN1CCN(CC(=O)O)CCN(CC(=O)*)CCN(CC(=O)O)CC1; X1 = O=C(C1CSC(c2nc3ccc(N[*:1])cc3s2)=N1)[*:2]; X2 = N#Cc1ccc2cc(OCCCN*)ccc2n1; SEt = CCS*

The subject of series [1] is apoptotic HeLa cells. Put plainly: Epifluorescence microscopy of apoptotic HeLa cells labeled with probes. Format: cell-based, human. The settings on record: microscopy, 2 μM probe. The procedure:
After removal of the medium, the cells were incubated with C-SNAF, L-ctrl, or D-ctrl at 2 μM for 24 h. Some cells were first incubated with caspase inhibitor (Z-VAD-fmk, 50 μM) for 30 min, followed by incubating with 2 μM C-SNAF for 24 h. The cells were carefully washed with PBS (1×) three times, and stained with Hoechst 33342 (2 μM) at 37° C. for 30 min. After rinses with PBS (1×) several times, the medium was replaced and the fluorescence images were acquired with DAPI and Cy5.5 filters. The images were processed using the standard CRi Nuance software, analyzed using Image J software package (NIH), and presented at the same intensity scale for comparison.
HeLa cells in #1.5 borosilicate 8-well chambered coverslips (Nunc) were either incubated with C-SNAF (2 μM) alone or co-incubated with DOX (1, 2, and 5 μM) and 2 μM C-SNAF, 2 μM C-SNAF together with caspase inhibitor (Z-VAD-fmk, 50 μM), or control probes D-ctrl and L-ctrl at 2 μM for 24 h. Then the medium was removed, the cells were carefully washed with PBS (1×) three times, and stained with nuclear binding probe Hoechst 33342 (2 μM) at 37° C. for 30 min. After several rinses with PBS (1×), the medium was replaced and the fluorescence images were acquired with DAPI and […] filters.

The target of series [2] is T1, caspase-3 (Homo sapiens, UniProt P42574).
T1 sequence (P42574 29-175 limits assumed): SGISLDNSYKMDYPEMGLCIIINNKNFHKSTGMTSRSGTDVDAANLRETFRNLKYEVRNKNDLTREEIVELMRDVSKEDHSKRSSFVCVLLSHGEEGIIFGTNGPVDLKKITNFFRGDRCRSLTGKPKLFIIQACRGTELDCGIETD
T1 sequence (P42574 176-277 limits assumed): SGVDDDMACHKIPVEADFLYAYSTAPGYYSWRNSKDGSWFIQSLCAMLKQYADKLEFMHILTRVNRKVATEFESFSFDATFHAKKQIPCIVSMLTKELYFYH
Put plainly: HPLC assay of caspase-3-triggered macrocyclization of C-SNAF. Format: biochemical. Also on record: purchased Sigma; host or cells: E. coli. The settings on record: same conditions as C-SNAF; D-ctrl after 24 h. The procedure:
The progression of caspase-3-triggered macrocyclization of C-SNAF to form C-SNAF-cycl in solution was monitored using high-performance liquid chromatography (HPLC) following incubation of the probe (25 μM) with recombinant human caspase-3 (4.9×10^−[…]).
Caspase (human, recombinant from E. coli) assays were performed for caspase-3 (4.9×10^−3 U; 7.35×10^−4 mg, Sigma), −7 (18.3 U; 7.35×10^−4 mg, Calbiochem), and −9 (0.3 U; 7.35×10^−4 mg, Calbiochem). All caspase assays were conducted in caspase buffer with 50 mM HEPES, 100 mM NaCl, 1 mM EDTA, 10 mM TCEP, 10% glycerol, and 0.1% CHAPS at pH 7.4. Cathepsin B (human liver; 0.27 U; 7.35×10^−4 mg, Calbiochem) and Legumain (human, recombinant from mouse myeloma cell line; >250 pmol/min/μg; 7.35×10^−4 mg, R&D Systems) were conducted in reaction buffer with 50 mM sodium acetate, 50 mM NaCl, 0.5 mM EDTA and 10 mM TCEP at pH 5.5. C-SNAF was diluted in the respective enzyme reaction buffer (25 μM, 1 mL) and remained at room temperature for 10 min, to which was then added the respective enzymes. Reactions were performed at 37° C., and monitored by HPLC hourly. The percentage conversion of the reaction was calculated based on the percentage of peak area of C-SNAF-cycl in the HPLC trace at 675 nm UV detection, which indicated the efficacy of enzyme cleavage of C-SNAF.

In series [3] the test system is STS-induced apoptotic HeLa cells. In words: Flow cytometry of STS-induced apoptotic HeLa cells labeled with probes. Format: cell-based, human. The note with it: 2 μM probe, compared with C-SNAF. As to the method:
Approximately 10^5 HeLa cells in 1 mL DMEM medium were seeded onto 12-well plates. […] For the inhibitor blocking experiment, the STS-treated cells were first incubated with the caspase inhibitor Z-VAD-fmk (50 μM, R&D Systems) for 30 min, and then 2 μM C-SNAF was added. All cells incubations were 24 h, followed by staining with FLICA (FAM) after trypsinization. After washing with PBS (1×) three times, the cell pellets were resuspended in 300 μL PBS and applied for flow cytometry analysis using the FITC and Cy5.5 channels. The cell number for each flow cytometry analysis was approximately 5000 to 10000, and the data was processed using FlowJo software.
For orientation: Flow cytometry measures light scatter and fluorescence of single cells or particles in a stream.

For series [4] the following is noted: mouse, in vivo, iv.
Series [5] deals with subcutaneous HeLa tumors. Put plainly: In vivo fluorescence imaging of DOX-treated HeLa tumor-bearing mice. Also on record: species or system mouse. The procedure:
C-SNAF or either of the control probes (5 nmol) was administered intravenously to tumor-bearing mice and whole animal fluorescence was longitudinally monitored using a Maestro fluorescence imager.
(§1) To establish tumors in 6-week-old female nu/nu mice, 2×10^6 HeLa cells suspended in 50 μL of a 50% v/v mixture of Matrigel in supplemented DMEM (10% FBS, 1% penstrep) were injected subcutaneously in the shoulders of the mouse. Tumors were grown until a single aspect was 0.7 to 0.9 cm (approximately 10-15 days), and then treatment consisting of 8 mg/kg DOX or saline was initiated. Treatments were administered intravenously once every 4 d for a total of three times. Total mouse body weight and tumor size (width and length by caliper) was measured every other day. Tumor volumes were calculated assuming ellipsoid shape with the formula (l×w^2)/2.
Two days following the final treatment, 5 nmol probe in saline was injected intravenously and fluorescence imaging began immediately on a Maestro hyperspectral fluorescent imaging system (PerkinElmer, Mass., USA) using a 635±25 nm excitation filter and a 675 nm long-pass emission filter, with images acquired from 670 to 900 nm. Tissue autofluorescence and Cy5.5 fluorescence were deconvolved, and tumor fluorescence intensity was quantified by region of interest measurement using Nuance v.3.0.1.2 software (Perkin Elmer, Mass., USA).

Series [6] deals with caspase-3/7 activity. Put plainly: CASPASE-GLO 3/7 assay in saline- and 3×DOX-treated tumor lysates. Format: in vivo, mouse. The note with it: 3×DOX 8 mg/kg i.v. As to the method: HeLa tumor xenografted mice were treated with saline or 3×DOX (8 mg/Kg). After treatment, the mice were sacrificed, and the tumors were resected and lysed with RIPA buffer (1 g tissue/1 ml buffer). The solution was homogenized for 1 min on ice, three times. The lysed solution was kept on ice for another 30 min, and centrifuged at 14,000×g for 30 min at 4° C. The supernatant was collected, and the protein concentration was measured using Bradford assay with BSA as standard. The caspase-3/7 activity in the lysed solution was measured by CASPASE-GLO® 3/7 assay, and normalized to the protein concentration.

For series [7], the system named is caspase-3 level. Put plainly: Caspase-3 level in DOX-treated HeLa tumors. Format: in vivo, mouse. The note with it: 0.2 mg DOX intratumoral, 4 days. As to the method: Mice were injected subcutaneously on the right shoulder with an estimated 1-2 million HeLa cells. The HeLa cells were allowed to establish a tumor xenograft and to grow to the size of 1 cm in diameter. A subset of the mice was treated with intratumoral injections of 0.2 mg (in 20 μL) doxorubicin. Four days later, the animals were killed, the tumors removed and quickly frozen using dry ice. The following day, tumors were cut into small pieces, weighted and 1 mL/g Riba buffer was added. They were kept on ice for 30 min and then homogenized with a sonicator (Bronson Sonifier 150). The lysed tumor solutions were centrifuged at 11,750×g for 15 min at 4° C. The supernatant was analyzed for caspase-3 activity using the CASPASE-GLO® kit (Promega) and for protein concentration using the standard BSA absorption assay.

Series [8] has as its system caspase-3 activity. Put plainly: Caspase-3 level in Dox-treated HeLa cells. Type of series: cell-based, human. The note with it: Dox 2 μM, 24 h. The procedure:
HeLa cells were incubated with different concentrations of doxorubicin (0, 1, 2 and 5 μM) and the cell/Tryp-LE solution was centrifuge at 11,750×g for 5 min, the supernatant was removed and 1 mL/g Riba buffer (Sigma) was added. The cells were left for 15 min on ice and homogenized with a sonicator (Bronson Sonifier 150) and the suspension was analyzed for Caspase-3 activity with a CASPASE-GLO® kit from Promega.
PET tracer 1 was applied to detect caspase-3 in apoptotic cells in vitro. HeLa cells were incubated with doxorubicin (Dox) (2 μM) for 24 h to induce apoptosis. […] Both Dox-treated and non-treated cells were then incubated with 1 for 4 h.

Series [9] has as its system HeLa tumor xenograft. In words: Tumor size monitoring in HeLa xenograft chemotherapy model. Format: in vivo, mouse. The note with it: 3×DOX 8 mg/kg i.v. As to the method:
as §1

In series [10] the test system is apoptotic cells. Put plainly: Two-photon laser confocal microscopy of europium analogue in HeLa cells. Format: cell-based, human. The settings on record: same conditions as probe 15 uptake.

Turning to `CC[N+]1=C(C=CC=CC=C2N(CCCCCC(=O)NCCCCC(NC(=O)C(CSC)NC(=O)C(CC(=O)O)NC(=O)C(NC(=O)C(CCC(=O)O)NC(=O)C(CC(=O)O)NC(C)=O)C(C)C)C(=O)Nc3ccc4nc(C5=NC(C(=O)NCCCOc6ccc7ncccc7c6)CS5)sc4c3)c3ccc4c(S(=O)(=O)O)cc(S(=O)(=O)O)cc4c3C2(C)C)C(C)(C)c2c1ccc1c(S(=O)(=O)O)cc(S(=O)(=O)[O-])cc21` [L-ctrl], the “fluorescence of apoptotic cells compared to C-SNAF” value in series [1] was “relatively weaker fluorescence”. The “products observed after incubation with caspase-3” value in series [2] is listed as “only the caspase-3-mediated DEVD-cleavage hydrolysis product”. For the same molecule, the “fluorescent intensity of apoptotic cells incubated with control probes” value in series [3] was “much lower fluorescent intensity”. The blood half-life in series [4] amounted to 30 ± 16.8 min. The “correlation (r) of maximum tumor fluorescence with maximum tumor size change” value in series [5] (3×DOX-treated mice, 1 h after probe) is “no significant correlation”. Besides, in series [5] (4 h after probe administration), the “average signal enhancement between DOX- and saline-treated tumors” value is on record as 0.24%. The “tumor fluorescence lower than that of C-SNAF” value in [5] (DOX-treated mice, 1 h) came out at 18%.
With `COc1cccc2c1C(=O)c1c(O)c3c(c(O)c1C2=O)C[C@@](O)(C(=O)CO)C[C@@H]3O[C@H]1C[C@H](N)[C@H](O)[C@H](C)O1` [DOX, doxorubicin], in [6], the “increase in caspase-3/7 activity in tumor lysates versus saline” value was “approximately 2 fold”. In [7], the “increase of caspase-3 level in treated tumors” value was 1.9 fold. Besides, the “caspase-3 activity of lysates of treated versus non-treated cells” value in series [8] was determined as 9.5 fold. The “tumor growth rate relative to saline” value in series [9] is “significant decrease in tumor growth rates”.
As for `CCSSCC(NC(=O)C(CC(=O)O)NC(=O)C(NC(=O)C(CCC(=O)O)NC(=O)C(CC(=O)O)NC(C)=O)C(C)C)C(=O)NC(CCCCNC(=O)CN1CCN(CC(=O)[O-])CCN(CC(=O)[O-])CCN(CC(=O)[O-])CC1)C(=O)Nc1ccc2nc(C3=NC(C(=O)NCCCOc4ccc5nc(C#N)ccc5c4)CS3)sc2c1.[Eu+3]` (stereo not drawn) [1-Eu^3+ (16)] (Ac-DEVDC(SEt)K(DOTA)[X1]-X2; configuration not given here), the “fluorescent signal in apoptotic cells” value in series [10] is “strong fluorescent signal in apoptotic cells”.

The values are drawn from patent publication US9642922B2, “Caspase-triggered nano-aggregation probes and methods of use” (The Board of Trustees of the Leland Stanford Junior …, priority 2013, dated 2017).
